Data set [1] has as its target T1, Amine oxidase [flavin-containing] B (Homo sapiens, UniProt P27338).
T1 sequence (P27338 whole entry): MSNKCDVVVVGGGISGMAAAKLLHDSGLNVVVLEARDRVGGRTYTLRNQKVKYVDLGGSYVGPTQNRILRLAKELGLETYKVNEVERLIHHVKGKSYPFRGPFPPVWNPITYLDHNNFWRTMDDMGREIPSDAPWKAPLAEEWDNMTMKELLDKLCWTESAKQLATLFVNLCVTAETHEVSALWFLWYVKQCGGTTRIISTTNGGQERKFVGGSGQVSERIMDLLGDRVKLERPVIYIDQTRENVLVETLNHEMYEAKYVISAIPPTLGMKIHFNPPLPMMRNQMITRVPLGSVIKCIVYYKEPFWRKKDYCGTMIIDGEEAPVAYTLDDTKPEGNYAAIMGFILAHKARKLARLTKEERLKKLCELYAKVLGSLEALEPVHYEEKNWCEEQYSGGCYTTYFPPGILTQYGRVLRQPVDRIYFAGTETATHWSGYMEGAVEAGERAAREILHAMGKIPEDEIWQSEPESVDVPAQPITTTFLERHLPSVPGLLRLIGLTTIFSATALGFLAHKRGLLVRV
Put plainly: Inhibition of recombinant human MAO-B using p-tyramine as substrate preincubated for 15 mins followed by substrate addition by Amplex Red probe-based fluorometric analysis.

The target in data set [2] is T2, Amine oxidase [flavin-containing] A (Homo sapiens, UniProt P21397).
T2 sequence (P21397 whole entry): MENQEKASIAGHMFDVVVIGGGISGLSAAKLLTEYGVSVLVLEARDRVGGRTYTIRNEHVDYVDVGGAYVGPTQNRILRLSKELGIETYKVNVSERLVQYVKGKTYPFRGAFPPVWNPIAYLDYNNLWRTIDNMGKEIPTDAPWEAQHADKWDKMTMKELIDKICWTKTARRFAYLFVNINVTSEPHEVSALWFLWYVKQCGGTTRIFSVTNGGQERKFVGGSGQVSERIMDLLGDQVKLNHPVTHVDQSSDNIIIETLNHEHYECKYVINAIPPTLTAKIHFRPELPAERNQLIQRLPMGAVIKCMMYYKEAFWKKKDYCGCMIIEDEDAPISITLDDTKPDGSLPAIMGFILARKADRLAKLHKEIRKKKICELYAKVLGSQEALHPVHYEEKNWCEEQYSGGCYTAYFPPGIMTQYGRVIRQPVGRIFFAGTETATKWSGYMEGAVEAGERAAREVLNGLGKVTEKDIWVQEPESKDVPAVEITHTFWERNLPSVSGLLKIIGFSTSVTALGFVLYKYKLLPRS
Put plainly: Inhibition of recombinant human MAO-A using p-tyramine as substrate at 100 uM preincubated for 15 mins followed by substrate addition by Amplex Red probe-based fluorometric analysis.

The species named for a further data set is Homo sapiens. The experiment in a line: Selectivity index, ratio of IC50 for recombinant human MAO-A to IC50 for recombinant human MAO-B.
The target in data set [3] is T2, Amine oxidase [flavin-containing] A. The experiment in a line: Inhibition of recombinant human MAO-A using p-tyramine as substrate preincubated for 15 mins followed by substrate addition by Amplex Red probe-based fluorometric analysis.
Another data set deals with SH-SY5Y. The experiment in a line: Neurotoxicity in human SH-SY5Y cells assessed as cell viability at 2.5 to 20 uM after 48 hrs by MTT assay. The format is toxicity, cell-based. (Tetrazolium assays rely on reduction of a dye to a coloured formazan, in cell work by metabolically active cells.)
Data set [4] can be described thus: Neurotoxicity in rat PC12 cells assessed as cell viability at 2.5 to 20 uM after 48 hrs by MTT assay. The conditions noted are these: pc-12, 48 h. The format is toxicity, cell-based.
For the next data set, the system named is HUVEC. Put plainly: Toxicity in HUVEC assessed as cell viability at 2.5 to 20 uM after 48 hrs by MTT assay. The format is cell-based. As to conditions: human; call rule not given here.

The source of these data is ChEMBL document CHEMBL3734688, “Synthesis and evaluation of 6-methylcoumarin derivatives as potent and selective monoamine oxidase B inhibitors” (Medchemcomm, 2015).

One may read the IC50 as the point on the concentration scale where inhibition reaches its midpoint. For `Cc1ccc(S(=O)(=O)Oc2cccc(-c3cc4cc(C)ccc4oc3=O)c2)cc1`, the IC50 in data set [1] was found to be 0.305 µM. For the same compound, the “inhibition (INH)” value in data set [2] is given as “Not Active”. Further, the Ratio IC50 in the data set listed under Homo sapiens is over 328.

Regarding `Cc1ccc2oc(=O)c(-c3cccc(OCCCCN(C)C)c3)cc2c1`, the 50% inhibitory concentration (IC50) in data set [1] is 1.13 µM; in data set [3], 26.7 µM. Further, in the data set listed under Homo sapiens, the Ratio IC50 worked out at 23.6.

Turning to `Cc1ccc2oc(=O)c(-c3ccccc3OCc3ccccc3)cc2c1`, the IC50 in data set [1] was determined as 0.256 µM. Besides, the “inhibition (INH)” value in data set [2] is recorded as “Not Active”. Further, the Ratio IC50 in the data set filed under Homo sapiens is over 390.

With `Cc1ccc2oc(=O)c(-c3cccc(OCCBr)c3)cc2c1`, the IC50 worked out at 2.45 µM in data set [1] and 20.7 µM in data set [3]. The Ratio IC50 in the data set listed under Homo sapiens stood at 8.47.

Consider `Cc1ccc2oc(=O)c(-c3ccc(OCc4ccccc4)cc3)cc2c1`, for which the IC50 in data set [1] was determined as 0.106 µM. In addition, the “inhibition (INH)” value in data set [2] is listed as “Not Active”. In addition, the Ratio IC50 in the data set filed under Homo sapiens is over 947.

On to `Cc1ccc2oc(=O)c(-c3ccccc3OCc3cccc(F)c3)cc2c1`, for which, in data set [1], the IC50 was found to be 0.253 µM. Moreover, the “inhibition (INH)” value in data set [2] was “Not Active”. The Ratio IC50 in the data set filed under Homo sapiens was over 395.

Consider `Cc1ccc2oc(=O)c(-c3cccs3)cc2c1`, for which the concentration for half-maximal inhibition (IC50) worked out at 3.76 µM in data set [1] and 8.09 µM in data set [3]. For the same compound, the Ratio IC50 in the data set filed under Homo sapiens came out at 2.16.

As to `Cc1ccc2oc(=O)c(-c3cccc(OC(=O)N(C)C)c3)cc2c1`, the half-inhibitory concentration (IC50) in data set [1] amounted to 4.43 µM. For the same compound, in data set [2], the “inhibition (INH)” value is “Not Active”. In the data set listed under Homo sapiens, the Ratio IC50 is over 22.6.

Consider `Cc1ccc2oc(=O)c(-c3cccc(OCc4cccc(F)c4)c3)cc2c1`, for which the Activity entry (in the data set on SH-SY5Y; in data set [4]; in the data set with HUVEC) was “Non-toxic” each time. In addition, the IC50 in data set [1] was 0.0601 µM. Moreover, the “inhibition (INH)” value in data set [2] is reported as “Not Active”. Besides, the Ratio IC50 in the data set listed under Homo sapiens was over 1660.

For `Cc1ccc2oc(=O)c(-c3cccc(OCCCN(C)C)c3)cc2c1`, the IC50 worked out at 0.905 µM in data set [1] and 34.9 µM in data set [3]. In the data set filed under Homo sapiens, the Ratio IC50 amounted to 38.6.

In the case of `CC(=O)Oc1ccc(-c2cc3cc(C)ccc3oc2=O)cc1`, the half-inhibitory concentration (IC50) in data set [1] came out at 0.401 µM. For the same compound, the “inhibition (INH)” value in data set [2] is on record as “Not Active”. The Ratio IC50 in the data set listed under Homo sapiens is over 249.

Take `Cc1ccc2oc(=O)c(-c3cccc(OCCN(C)C)c3)cc2c1`: the IC50 in data set [1] worked out at 0.218 µM. In data set [2], the “inhibition (INH)” value is “Not Active”. The Ratio IC50 in the data set listed under Homo sapiens was over 459.

Consider `Cc1ccc2oc(=O)c(-c3cccc4ccccc34)cc2c1`, for which the figures for the IC50 in data set [1] and in data set [3] were 6.49 µM and 55.5 µM, respectively. The Ratio IC50 in the data set listed under Homo sapiens stood at 8.55.

For `CC(=O)Oc1ccccc1-c1cc2cc(C)ccc2oc1=O`, in data set [1], the IC50 stood at 0.938 µM. In addition, the “inhibition (INH)” value in data set [2] was “Not Active”. Also, the Ratio IC50 in the data set listed under Homo sapiens was over 107.

With `Cc1ccc2oc(=O)c(-c3cccc(OCCCCBr)c3)cc2c1`, the results for the half-inhibitory concentration (IC50) in data set [1] and in data set [3] were 10.7 µM and 40.6 µM, respectively. The Ratio IC50 in the data set listed under Homo sapiens amounted to 3.79.

Consider `Cc1ccc2oc(=O)c(-c3cccc(OC(=O)c4ccccc4)c3)cc2c1`, for which the IC50 in data set [1] is 0.651 µM; in data set [3] it was 15.8 µM. Further, the Ratio IC50 in the data set listed under Homo sapiens worked out at 24.2.

In the case of `Cc1ccc2oc(=O)c(-c3ccc(OCc4cccc(F)c4)cc3)cc2c1`, the concentration for half-maximal inhibition (IC50) in data set [1] was found to be 0.175 µM. For the same compound, in data set [2], the “inhibition (INH)” value is reported as “Not Active”. For the same compound, the Ratio IC50 in the data set filed under Homo sapiens is over 572.

As to `Cc1ccc2oc(=O)c(-c3cccnc3)cc2c1`, the IC50 was found to be 2.58 µM in data set [1] and 6.67 µM in data set [3]. Also, the Ratio IC50 in the data set filed under Homo sapiens was determined as 2.59.

`Cc1ccc2oc(=O)c(-c3c[nH]c4ccccc34)cc2c1`: the IC50 was 5.67 µM in data set [1] and 43.9 µM in data set [3]. For the same compound, the Ratio IC50 in the data set filed under Homo sapiens came to 7.75.

Turning to `Cc1ccc2oc(=O)c(-c3cccc(OCCCBr)c3)cc2c1`, the figures for the IC50 in data set [1] and in data set [3] were 3.67 µM and 19.5 µM, respectively. The Ratio IC50 in the data set filed under Homo sapiens was found to be 5.3.

For `CC(=O)Oc1cccc(-c2cc3cc(C)ccc3oc2=O)c1`, in data set [1], the IC50 was found to be 0.714 µM. Further, in data set [2], the “inhibition (INH)” value was “Not Active”. In addition, the Ratio IC50 in the data set filed under Homo sapiens is over 140.

As for `Cc1ccc2oc(=O)c(-c3cccc(OCc4ccccc4)c3)cc2c1`, the concentration for half-maximal inhibition (IC50) in data set [1] amounted to 0.201 µM. Also, the “inhibition (INH)” value in data set [2] is reported as “Not Active”. Also, the Ratio IC50 in the data set listed under Homo sapiens is over 498.
